Assay results taken from patent US9718828B2 (MERCK SHARP & DOHME CORP., priority 2011, dated 2017).
Counter-ions that a name gives are not always drawn.

What follows are compounds tested against hBTK (full-length BTK, 6HIS-tag cleaved) (Homo sapiens (Human), UniProt Q06187) (assay: BTK enzymatic activity, LANCE TR-FRET assay (Assay Method C)). Conditions: LANCE TR-FRET, 50 pM hBTK, 25 μM ATP; class 100-1000 is given as ≧100 nM-<1 μM; read-out: IC50 Btk activity values - Assay Method C.
hBTK (full-length BTK, 6HIS-tag cleaved), sequence (Q06187 whole entry): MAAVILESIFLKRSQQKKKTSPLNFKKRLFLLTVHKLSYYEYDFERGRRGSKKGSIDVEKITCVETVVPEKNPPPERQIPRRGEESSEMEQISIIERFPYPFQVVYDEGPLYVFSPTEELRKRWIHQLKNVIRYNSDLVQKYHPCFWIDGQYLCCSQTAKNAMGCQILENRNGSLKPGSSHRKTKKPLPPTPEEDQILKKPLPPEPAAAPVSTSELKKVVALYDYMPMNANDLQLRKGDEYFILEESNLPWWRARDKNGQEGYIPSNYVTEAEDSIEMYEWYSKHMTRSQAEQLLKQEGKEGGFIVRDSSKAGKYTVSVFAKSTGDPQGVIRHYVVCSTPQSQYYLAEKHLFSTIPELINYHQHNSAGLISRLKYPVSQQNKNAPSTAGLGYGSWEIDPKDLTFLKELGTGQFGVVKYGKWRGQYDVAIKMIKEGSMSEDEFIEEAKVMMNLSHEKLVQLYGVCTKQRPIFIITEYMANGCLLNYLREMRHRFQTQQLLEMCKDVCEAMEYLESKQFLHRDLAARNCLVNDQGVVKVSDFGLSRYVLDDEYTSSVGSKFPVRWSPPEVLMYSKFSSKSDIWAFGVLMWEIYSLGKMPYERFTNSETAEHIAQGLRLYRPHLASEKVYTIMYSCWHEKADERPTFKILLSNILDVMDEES
Format: biochemical
An IC50 of less than 0.01 µM was found for `Nc1nccn2c([C@H]3CN(C(=O)CO)CCO3)nc(-c3ccc(C(=O)Nc4cc(C(F)(F)F)ccn4)cc3)c12` [Example 517, 4-{8-amino-3-[(2R)-4-(hydroxyacetyl)morpholin-2-yl]imidazo[1,5-a]pyrazin-1-yl}-N-[4-(trifluoromethyl)pyridin-2-yl]benzamide] in this work.
An IC50 of less than 0.01 µM was found for `CC1(C(=O)N2CCO[C@@H](c3nc(-c4ccc(C(=O)Nc5cc(C(F)(F)F)ccn5)cc4F)c4c(N)nccn34)C2)COC1` [Example 513, 4-(8-amino-3-{(2R)-4-[(3-methyloxetan-3-yl)carbonyl]morpholin-2-yl}imidazo[1,5-a]pyrazin-1-yl)-3-fluoro-N-[4-(trifluoromethyl)pyridin-2-yl]benzamide, TFA salt] in this work.
An IC50 of less than 0.01 µM was found for `CN1CC(C(=O)N2CCO[C@@H](c3nc(-c4ccc(C(=O)Nc5cc(C(F)(F)F)ccn5)cc4)c4c(N)nccn34)C2)C1` [Example 501, 4-(8-amino-3-{(2R)-4-[(1-methylazetidin-3-yl)carbonyl]morpholin-2-yl}imidazo[1,5-a]pyrazin-1-yl)-N-[4-(trifluoromethyl)pyridin-2-yl]benzamide] in this work.
An IC50 of less than 0.01 µM was found for `CCOCC(=O)N1CCC[C@@H](c2nc(-c3ccc(C(=O)Nc4cc(C(F)(F)F)ccn4)cc3)c3c(N)nccn23)C1` [Example 339, 4-{8-amino-3-[(3R)-1-(ethoxyacetyl)piperidin-3-yl]imidazo[1,5-a]pyrazin-1-yl}-N-[4-(trifluoromethyl)pyridin-2-yl]benzamide] in this work.
An IC50 of less than 0.01 µM was found for `CCC(O)C(=O)N1CCC[C@@H](c2nc(-c3ccc(C(=O)Nc4cc(C(F)(F)F)ccn4)cc3)c3c(N)nccn23)C1` (stereo partly drawn) [Example 343, 4-{8-amino-3-[(3R)-1-(2-hydroxybutanoyl)piperidin-3-yl]imidazo[1,5-a]pyrazin-1-yl}-N-[4-(trifluoromethyl)pyridin-2-yl]benzamide] in this work.
An IC50 of less than 0.01 µM was found for `Cn1ncc2c1CCC[C@H]2n1nc(-c2ccc(C(=O)Nc3cc(C(F)(F)F)ccn3)cc2)c2c(N)ncnc21` [Example 552, 4-{4-amino-1-[(4R)-1-methyl-4,5,6,7-tetrahydro-1H-indazol-4-yl]-1H-pyrazolo[3,4-d]pyrimidin-3-yl}-N-[4-(trifluoromethyl)pyridin-2-yl]benzamide, TFA salt] in this work.
An IC50 of less than 0.01 µM was found for `Nc1ncnc2c1c(-c1ccc(C(=O)Nc3cc(C(F)(F)F)ccn3)cc1)nn2[C@H]1CC[C@H](C(F)(F)F)NC1` [Example 556, 4-{4-amino-1-[(3S,6R)-6-(trifluoromethyl)piperidin-3-yl]-1H-pyrazolo[3,4-d]pyrimidin-3-yl}-N-[4-(trifluoromethyl)pyridin-2-yl]benzamide, TFA salt] in this work.
An IC50 of less than 0.01 µM was found for `Cc1cnc(N)c2c(-c3ccc(C(=O)Nc4cc(C(F)(F)F)ccn4)cc3)nc([C@H]3CN(Cc4cnn(C)c4)CCO3)n12` [Example 509, 4-(8-amino-5-methyl-3-{(2R)-4-[(1-methyl-1H-pyrazol-4-yl)methyl]morpholin-2-yl}imidazo[1,5-a]pyrazin-1-yl)-N-[4-(trifluoromethyl)pyridin-2-yl]benzamide] in this work.
An IC50 of less than 0.01 µM was found for `CCN1CCO[C@@H](c2nc(-c3ccc(C(=O)Nc4cc(C(F)(F)F)ccn4)cc3)c3c(N)ncc(Cl)n23)C1` [Example 522, 4-{8-amino-5-chloro-3-[(2R)-4-ethylmorpholin-2-yl]imidazo[1,5-a]pyrazin-1-yl}-N-[4-(trifluoromethyl)pyridin-2-yl]benzamide] in this work.
An IC50 of less than 0.01 µM was found for `Nc1nccn2c([C@H]3CN(CCO)CCO3)nc(-c3ccc(C(=O)Nc4cc(C(F)(F)F)ccn4)cc3)c12` [Example 492, (R)-4-(8-amino-3-(4-(2-hydroxyethyl)morpholin-2-yl)imidazo[1,5-a]pyrazin-1-yl)-N-(4-(trifluoromethyl)pyridin-2-yl)benzamide] in this work.
An IC50 of less than 0.01 µM was found for `COCCN1CCO[C@@H](c2nc(-c3ccc(C(=O)Nc4cc(C(F)(F)F)ccn4)cc3)c3c(N)nccn23)C1` [Example 491, (R)-4-(8-amino-3-(4-(2-methoxyethyl)morpholin-2-yl)imidazo[1,5-a]pyrazin-1-yl)-N-(4-(trifluoromethyl)pyridin-2-yl)benzamide] in this work.
An IC50 of less than 0.01 µM was found for `N#CCN1CCO[C@@H](c2nc(-c3ccc(C(=O)Nc4cc(C(F)(F)F)ccn4)cc3)c3c(N)ncc(Cl)n23)C1` [Example 533, 4-{8-amino-5-chloro-3-[(2R)-4-(cyanomethyl)morpholin-2-yl]imidazo[1,5-a]pyrazin-1-yl}-N-[4-(trifluoromethyl)pyridin-2-yl]benzamide] in this work.
An IC50 of less than 0.01 µM was found for `CCOCCC(=O)N1CCO[C@@H](c2nc(-c3ccc(C(=O)Nc4cc(C(F)(F)F)ccn4)cc3)c3c(N)nccn23)C1` [Example 503, 4-{8-amino-3-[(2R)-4-(3-ethoxypropanoyl)morpholin-2-yl]imidazo[1,5-a]pyrazin-1-yl}-N-[4-(trifluoromethyl)pyridin-2-yl]benzamide] in this work.
An IC50 of less than 0.01 µM was found for `N#CC1(C(=O)N2CCC[C@@H](c3nc(-c4ccc(C(=O)Nc5cc(C(F)(F)F)ccn5)cc4)c4c(N)nccn34)C2)CC1` [Example 335, 4-(8-amino-3-{(3R)-1-[(1-cyanocyclopropyl)carbonyl]piperidin-3-yl}imidazo[1,5-a]pyrazin-1-yl)-N-[4-(trifluoromethyl)pyridin-2-yl]benzamide] in this work.
An IC50 of less than 0.01 µM was found for `C[C@H](O)C(=O)N1CCC[C@@H](c2nc(-c3ccc(C(=O)Nc4cc(C(F)(F)F)ccn4)cc3)c3c(N)nccn23)C1` [Example 345, 4-(8-amino-3-{(3R)-1-[(2S)-2-hydroxypropanoyl]piperidin-3-yl}imidazo[1,5-a]pyrazin-1-yl)-N-[4-(trifluoromethyl)pyridin-2-yl]benzamide] in this work.
An IC50 of less than 0.01 µM was found for `CC1(C(=O)N2CCC[C@@](O)(c3nc(-c4ccc(C(=O)Nc5cc(C(F)(F)F)ccn5)cc4)c4c(N)nccn34)C2)COC1` [Example 439, 4-(8-amino-3-{(3S)-3-hydroxy-1-[(3-methyloxetan-3-yl)carbonyl]piperidin-3-yl}imidazo[1,5-a]pyrazin-1-yl)-N-[4-(trifluoromethyl)pyridin-2-yl]benzamide] in this work.
An IC50 of less than 0.01 µM was found for `CCc1ccnc(NC(=O)c2ccc(-c3nn([C@@H]4CCCN(C(=O)C5(C)COC5)C4)c4ccnc(N)c34)cc2)c1` [Example 386, 4-(4-amino-1-{(3R)-1-[(3-methyloxetan-3-yl)carbonyl]piperidin-3-yl}-1H-pyrazolo[4,3-c]pyridin-3-yl)-N-(4-ethylpyridin-2-yl)benzamide] in this work.
An IC50 of less than 0.01 µM was found for `CC1(CN2CCC[C@@H](c3nc(-c4ccc(C(=O)Nc5cc(C(F)(F)F)ccn5)cc4)c4c(N)nccn34)C2)COC1` [Example 338, 4-(8-amino-3-{(3R)-[(3-methyloxetan-3-yl)methyl]piperidin-3-yl}imidazo[1,5-a]pyrazin-1-yl)-N-[4-(trifluoromethyl)pyridin-2-yl]benzamide] in this work.
An IC50 of less than 0.01 µM was found for `COCC(=O)N1CCC[C@@H](c2nc(-c3ccc(C(=O)Nc4cc(C(F)(F)F)ccn4)cc3)c3c(N)ncc(Cl)n23)C1` [Example 442, 4-{8-amino-5-chloro-3-[(3R)-1-(methoxyacetyl)piperidin-3-yl]imidazo[1,5-a]pyrazin-1-yl}-N-[4-(trifluoromethyl)pyridin-2-yl]benzamide] in this work.
An IC50 of less than 0.01 µM was found for `COCC1(C(=O)N2CCC[C@@H](c3nc(-c4ccc(C(=O)Nc5cc(C(F)(F)F)ccn5)cc4)c4c(N)nccn34)C2)CC1` [Example 334, 4-{8-amino-3-[(3R)-1-{[1-(methoxymethyl)cyclopropyl]carbonyl}piperidin-3-yl]imidazo[1,5-a]pyrazin-1-yl}-N-[4-(trifluoromethyl)pyridin-2-yl]benzamide] in this work.
An IC50 of 0.01 to 0.1 µM was found for `Cc1cnc(N)c2c(-c3ccc(C(=O)Nc4cc(C(F)(F)F)ccn4)cc3)nc([C@H]3CN(C(=O)C4(C)COC4)CCO3)n12` [Example 506, 4-(8-amino-5-methyl-3-{(2R)-4-[(3-methyloxetan-3-yl)carbonyl]morpholin-2-yl}imidazo[1,5-a]pyrazin-1-yl)-N-[4-(trifluoromethyl)pyridin-2-yl]benzamide] in this work.
An IC50 of less than 0.01 µM was found for `Cc1cnc(N)c2c(-c3ccc(C(=O)Nc4cc(OC5CC5)ccn4)cc3)nc([C@@H]3CCCN(C(=O)C4(C)COC4)C3)n12` [Example 456, 4-(8-amino-5-methyl-3-{(3R)-1-[(3-methyloxetan-3-yl)carbonyl]piperidin-3-yl}imidazo[1,5-a]pyrazin-1-yl)-N-[4-(cyclopropyloxy)pyridin-2-yl]benzamide] in this work.
An IC50 of less than 0.01 µM was found for `CC1(C(=O)N2CCC[C@@H](c3nc(-c4ccc(C(=O)Nc5cc(C(F)(F)F)ccn5)cc4)c4c(N)ncc(C#N)n34)C2)COC1` [Example 373, (R)-4-(8-amino-5-cyano-3-(1-(3-methyloxetane-3-carbonyl)piperidin-3-yl)imidazo[1,5-a]pyrazin-1-yl)-N-(4-(trifluoromethyl)pyridin-2-yl)benzamide] in this work.
An IC50 of less than 0.01 µM was found for `COCC(=O)N1CCC[C@@H](c2nc(-c3ccc(C(=O)Nc4cc(C(F)(F)F)ccn4)cc3)c3c(N)nccn23)C1` [Example 340, 4-{8-amino-3-[(3R)-1-(methoxyacetyl)piperidin-3-yl]imidazo[1,5-a]pyrazin-1-yl}-N-[4-(trifluoromethyl)pyridin-2-yl]benzamide] in this work.
An IC50 of less than 0.01 µM was found for `Cc1cnc(N)c2c(-c3ccc(C(=O)Nc4cc(C(F)(F)F)ccn4)cc3F)nc([C@H]3CN(C(=O)C4(C)COC4)CCO3)n12` [Example 514, 4-(8-amino-5-methyl-3-{(2R)-4-[(3-methyloxetan-3-yl)carbonyl]morpholin-2-yl}imidazo[1,5-a]pyrazin-1-yl)-3-fluoro-N-[4-(trifluoromethyl)pyridin-2-yl]benzamide] in this work.
An IC50 of less than 0.01 µM was found for `Nc1ncc(Cl)n2c([C@H]3CN(CC(F)(F)F)CCO3)nc(-c3ccc(C(=O)Nc4cc(C(F)(F)F)ccn4)cc3)c12` [Example 526, 4-{8-amino-5-chloro-3-[(2R)-4-(2,2,2-trifluoroethyl)morpholin-2-yl]imidazo[1,5-a]pyrazin-1-yl}-N-[4-(trifluoromethyl)pyridin-2-yl]benzamide] in this work.

Same assay, conditions: Table D; Assay Method C (LANCE TR-FRET), 50 pM hBTK, 25 μM ATP; read-out: IC50 BTK activity value
An IC50 of 0.000472 µM was found for `C[C@H](O)C(=O)N1CCC[C@@H](c2nc(-c3ccc(C(=O)Nc4cc(C(F)(F)F)ccn4)cc3)c3c(N)nccn23)C1` [Example 345, 4-(8-amino-3-{(3R)-1-[(2S)-2-hydroxypropanoyl]piperidin-3-yl}imidazo[1,5-a]pyrazin-1-yl)-N-[4-(trifluoromethyl)pyridin-2-yl]benzamide] in this work.
An IC50 of 0.000403 µM was found for `Cc1cnc(N)c2c(-c3ccc(C(=O)Nc4cc(OC5CC5)ccn4)cc3)nc([C@@H]3CCCN(C(=O)C4(C)COC4)C3)n12` [Example 456, 4-(8-amino-5-methyl-3-{(3R)-1-[(3-methyloxetan-3-yl)carbonyl]piperidin-3-yl}imidazo[1,5-a]pyrazin-1-yl)-N-[4-(cyclopropyloxy)pyridin-2-yl]benzamide] in this work.
